Drawing on the SangsterLogP compilation, this text covers logP and logD for 68 compounds.

Assay in data set [1]: not given
This is another data set of the same source.

A short description of data set [2]: method code SF-HPLC, from DOI: 10.1016/j.ejpb.2006.11.002, PMID: 17182232. The conditions noted are these: pH 7.4.
Data set [3] in a line: method code SF-HPLC, from DOI: 10.1021/jm00112a026, PMID: 1875345. Particulars: pH 7.4.
Data set [4] in a line: method code SF-AS/HPLC, from Ellington, J. J. (1988). Octanol/water partition coefficients for evaluation of hazardous waste land disposal: Selected chemicals. US Environmental Protection Agency, Environmental Research ….
Data set [5] can be described thus: method code SF-AS, from DOI: 10.1248/cpb.32.4084, PMID: 6099228. The conditions noted are these: pH 7.4.
The nature of data set [6]: method code SF, from DOI: 10.1023/a:1016286026462, PMID: 8570535.
Assay in data set [7]: not given
This is another data set of the same source.

Assay in data set [8]: not given
The source holds these as a separate data set.

Assay in data set [9]: not given
This is another data set of the same source.

Data set [10] is described as follows: method code SF, from DOI: 10.1021/jm00114a024, PMID: 1920362.
Data set [11] in a line: method code SF, from DOI: 10.1021/jm00237a002, PMID: 1133810. Particulars: pH 7.2.
Data set [12] can be described thus: from Sparatore, F.; Grieco, C.; Silipo, C.; Vittoria, A. (1979). Use of regression analysis to correlate auxin activity with chemical physical and structural properties of benzotriazole derivatives. III. …. Particulars: pH 5.6.
The nature of data set [13]: method code SF-AS, from Busch, N.; Moleyre, J.; Bondivenne, R.; Labrid, C. (1973). Study of the predictive value of the Hansch correlation equations for a series of beta-alkoxy-beta-phenylethyl pyrrolidines. Chimica ….
Assay in data set [14]: not given
This is another data set of the same source.

Assay in data set [15]: not given
This is another data set of the same source.

Data set [16] in a line: method code SF-AS, from Schaper, J. (1979). Simultaneous determination of electronic and lipophilic properties of acids and bases by nonlinear regression analysis of pH-dependent partition measurements. J. Chem. Research ….
A short description of data set [17]: method code SF-HPLC, from DOI: 10.1002/ps.2780170106.
Assay in data set [18]: not given
This is another data set of the same source.

Data set [19] is described as follows: method code RP-HPLC, from DOI: 10.2166/wqrj.1987.010. The conditions noted are these: pH 7.0.
Assay in data set [20]: not given
This is another data set of the same source.

Assay in data set [21]: not given
This is another data set of the same source.

Assay in data set [22]: not given
The source holds these as a separate data set.

Assay in data set [23]: not given
The source holds these as a separate data set.

A short description of data set [24]: method code SF-HPLC, from DOI: 10.1023/a:1015924724973, PMID: 2762226. The conditions noted are these: pH 7.4.
Assay in data set [25]: not given
This is another data set of the same source.

Assay in data set [26]: not given
This is another data set of the same source.

The nature of data set [27]: method code SF-HPLC, from PMID: 1515051. The conditions noted are these: pH 6.0.
Assay in data set [28]: not given
This is another data set of the same source.

A short description of data set [29]: method code SF-ESR, from DOI: 10.1515/znc-1987-7-832, PMID: 2961152.
Assay in data set [30]: not given
This is another data set of the same source.

Assay in data set [31]: not given
This is another data set of the same source.

Data set [32] is described as follows: method code SF-AS, from DOI: 10.1016/j.ejps.2010.09.003, PMID: 20854904. The conditions noted are these: pH 10.0.
Assay in data set [33]: not given
The source holds these as a separate data set.

Take `COc1ccc2nc(C3=N[C@@H](C(=O)O)CS3)sc2c1`: the lipophilicity (logP) is 1.16.
In [1], `CCOP(=S)(OCC)SCSc1ccc(Cl)cc1` came in with a lipophilicity (logP) of 4.53.
Take `CCOC(=O)C(NC(=O)c1cccnc1)n1cc(F)c(=O)[nH]c1=O` (stereo not drawn): the pH-dependent lipophilicity (logD) in data set [2] is 0.21.
As to `OC(CN1C2C3CCC(C3)C21)Cn1ccnc1` (stereo not drawn), in data set [3], the logD came to 1.6.
In data set [4], `O=[N+]([O-])c1cc(C2CCCCC2)c(O)c([N+](=O)[O-])c1` returned a log partition coefficient (logP) of 4.12.
Take `COc1ccc(NC(=O)CN2CCCCC2)cc1`: the logD in data set [5] came out at 2.52.
The compound `C/C=C(/C)C(=O)O[C@H]1CCN2CC=C(COC(=O)[C@@](O)([C@H](C)OC)C(C)(C)O)[C@H]12` yielded a log partition coefficient (logP) in data set [4] of 1.28.
The compound `Oc1cc(Cl)ccc1Oc1ccc(Cl)cc1Cl` yielded a log partition coefficient (logP) in data set [6] of 4.53.
The compound `Clc1cc2oc3c(Cl)c(Cl)c(Cl)cc3c2cc1Cl` displayed a logP in data set [7] of 6.31.
In data set [8], `CN1C(C(=O)Nc2ccccn2)=C(O)c2sccc2S1(=O)=O` gave a logP of 1.9.
Regarding `Brc1cc(Br)cc(-c2cc(Br)cc(Br)c2)c1`, the logP in [9] amounted to 7.41.
The compound `CN(C)CCN(C)S(=O)(=O)c1ccc(C(C)(C)[N+](=O)[O-])c([N+](=O)[O-])c1` showed a logP in data set [10] of 1.42.
`CCOc1cnc(NS(=O)(=O)c2ccccc2)nc1` registered a logD in [11] of 0.53.
As to `OCCCCCCn1nc2ccccc2n1`, in data set [12], the pH-dependent lipophilicity (logD) stood at 2.26.
In the case of `OC(CN1CCCC1)c1ccccc1` (stereo not drawn), the logP in data set [13] was 1.38.
`Clc1cccc2c1Oc1ccccc1O2`: the logP in [14] was 4.75.
In data set [15], `CCN(CC)CCSCc1ccccc1` gave a logP of 2.66.
`COC(=O)C(NC(=O)c1cccnc1)n1cc(F)c(=O)[nH]c1=O` (stereo not drawn) displayed a pH-dependent lipophilicity (logD) in data set [2] of -0.12.
With `Cc1ccc(NS(=O)(=O)c2ccc(N)cc2)cc1`, the logP in [16] was determined as 2.11.
With `CC(C)(C)NC(=O)[C@@H]1CN(Cc2cccnc2)CCN1C[C@@H](O)C[C@@H](Cc1ccccc1)C(=O)N[C@H]1c2ccccc2C[C@H]1O`, the logP in data set [8] came out at 2.79.
Take `O=C(O)CCOc1cccc2ccccc12`: in data set [17] (pH 2.0), the log distribution coefficient (logD) is 3.
In the case of `Clc1ccccc1C(c1ccccc1)(c1ccccc1)n1ccnc1`, in data set [18], the logP amounted to 4.75.
`CNC(=O)Oc1cccc2c1OC(C)(C)C2` came in with a logD in data set [19] of 1.88.
`CCC(CC)(C(N)=O)c1ccc2c(c1)OCO2` yielded a log partition coefficient (logP) in data set [20] of 1.59.
Compound `C=CCC(CC=C)(C(N)=O)c1ccc2c(c1)OCO2` came in with a logP in data set [20] of 2.1.
Regarding `Clc1ccccc1-c1ccccc1Cl`, in data set [21], the lipophilicity (logP) turned out to be 4.8.
With `COC(CN1CCCC1)c1ccccc1` (stereo not drawn), in data set [13], the log partition coefficient (logP) was 1.88.
`S=C=NCc1ccc2ccccc2c1` gave a log partition coefficient (logP) in data set [22] of 4.42.
On to `Clc1ccc(-c2ccc(Cl)c(Cl)c2)cc1Cl`, for which the lipophilicity (logP) in data set [9] was determined as 6.04.
Regarding `Nc1ccc(S(=O)(=O)Nc2ccc(S(N)(=O)=O)cc2)cc1`, the logP in data set [23] was 0.35.
As for `N[C@@H](Cc1ccc(O)c(O)c1)C(=O)OCCCCO`, in data set [24], the logD is -0.46.
With `CCCc1nc(S(=O)(=O)Nc2c(F)cccc2F)nn1-c1ccccc1`, the log partition coefficient (logP) in data set [25] was determined as 4.2.
`OCCCCCn1nnc2ccccc21` showed a pH-dependent lipophilicity (logD) in [12] of 1.51.
In the case of `Cc1cc(Cl)ccc1OCC(=O)OCCCCCC(C)C`, the logD in data set [19] was 6.69.
`CN1CC(NC(=O)CSC(=O)c2ccccc2)CC2c3cccc4[nH]cc(c34)CC21` (stereo not drawn) returned a log partition coefficient (logP) in data set [15] of 1.9.
Compound `S=C=Nc1ccc(-c2ccc(N=C=S)cc2)cc1` yielded a lipophilicity (logP) in [22] of 5.5.
Take `CN(C)c1ccc(NS(=O)(=O)c2ccc(N)cc2)cc1`: in data set [16], the logP amounted to 1.57.
Take `COc1ccc(C=CC(=O)OCCC(C)C)cc1`: in data set [6], the logP came out at 4.83.
Compound `CC(C)N1CCOC(c2cccc(Cl)c2)C1` (stereo not drawn) gave a logP in data set [26] of 3.27.
Regarding `CC(C)COC(=O)n1c(-c2cscn2)nc2ccccc21`, the logD in data set [27] came to 3.46.
In [1], `CNC(=O)Oc1cc(C)c(N(C)C)c(C)c1` showed a lipophilicity (logP) of 2.56.
With `COC(=O)[C@H]1CSC(c2nc3ccc(O)cc3s2)=N1`, the log partition coefficient (logP) turned out to be 2.23.
In the case of `Cc1ccc(Cl)c(NS(=O)(=O)c2nc(C)n(-c3ncccn3)n2)c1Cl`, the lipophilicity (logP) in [25] amounted to 3.
In data set [18], `CS(=O)(=O)c1ccc([C@@H](O)[C@@H](CO)NC(=O)C(Cl)Cl)cc1` yielded a log partition coefficient (logP) of 0.15.
Turning to `CCC1(CC)C(=O)NC(=O)N=C1OC(C)C`, the logP in [28] turned out to be 1.86.
The compound `Clc1ccc(-c2ccc(Cl)cc2Cl)cc1` showed a lipophilicity (logP) in data set [21] of 5.62.
The compound `CCOC(=O)n1c(-c2cscn2)nc2ccccc21` had a log distribution coefficient (logD) in data set [27] of 2.51.
In data set [5], `O=C(CN1CCCCC1)Nc1ccc(Cl)c(Cl)c1` returned a pH-dependent lipophilicity (logD) of 3.65.
In data set [29], `CC1(C)CC(NC(=O)N(CCCl)N=O)CC(C)(C)N1[O]` came in with a lipophilicity (logP) of 1.6.
For `Cc1cccc(C2CNCCO2)c1` (stereo not drawn), the log partition coefficient (logP) in [26] is 1.52.
For `Clc1cc2c(c(Cl)c1Cl)Oc1c(Cl)c(Cl)c(Cl)c(Cl)c1O2`, the logP in data set [14] was determined as 8.2.
On to `CCOP(=O)(Sc1ccccc1)Sc1ccccc1`, for which the logP in data set [30] worked out at 3.68.
`c1ccc2c(c1)ccc1ccccc12`: the logP in [31] stood at 4.69.
In [7], `Clc1cc2oc3cc(Cl)c(Cl)c(Cl)c3c2cc1Cl` displayed a log partition coefficient (logP) of 6.7.
`CNCCN(C)S(=O)(=O)c1ccc(CONC(N)=O)c([N+](=O)[O-])c1` gave a logP in data set [10] of 0.45.
Consider `N#CCCOc1cccc2ccccc12`, for which the logD in data set [17] (pH 6.4) is 2.8.
The compound `Nc1ccc(S(=O)(=O)Nc2ccccc2)cc1` showed a log partition coefficient (logP) in data set [23] of 1.55.
`CN(C)CCOC(=O)c1ccccc1` registered a logD in [32] of 1.76.
Regarding `CCc1cnc(NS(=O)(=O)c2ccccc2)nc1`, the log distribution coefficient (logD) in data set [11] was 0.88.
In the case of `CC1(C)CC(NC(=O)N(CCCl)N=O)C(C)(C)[N+]1(C)[O-]` (stereo not drawn), in [29], the logP was determined as 1.64.
Compound `O=C(CCN1CCOCC1)c1ccccc1` gave a log distribution coefficient (logD) in data set [32] of 1.24.
In turn, `CC(C)OP(=O)(OC(C)C)SCc1ccccc1` came in with a log partition coefficient (logP) in [30] of 3.43.
In the case of `CCCCOC(=O)[C@@H](N)Cc1ccc(O)c(O)c1`, the logD in [24] was determined as 1.19.
In data set [33], `c1ccc2c(c1)Cc1ccccc1-2` came in with a lipophilicity (logP) of 4.2.
In data set [33], `c1ccc2c(c1)ccc1cc3ccc4ccccc4c3nc12` came in with a logP of 6.42.
Compound `CCOC(=O)C1CCC2C(C1)N2CC(O)Cn1ccnc1` (stereo not drawn) displayed a logD in data set [3] of 1.13.
In the case of `CCC1(c2ccccc2)C(=O)NC(=O)N(C(C)C)C1=O` (stereo not drawn), the logP in data set [28] came out at 2.58.
As to `Clc1cc(Cl)c(-c2cc(Cl)c(Cl)c(Cl)c2Cl)cc1Cl`, the logP in data set [31] came to 7.15.
